Read-outs that look alike come from different tables or passages of the source.
What was measured:
[1] = Phase I metabolism in human liver microsomes, metabolite quantitation by UPLC-MS/MS MRM; assay type: in vitro ADME
Protocol: (§1) Phase I Metabolism. […] Subsequently, 150 μL of NADPH solution (final concentration of 1 mM) was added to each reaction mixture. After incubation at 37 °C for 90 min in a shaking water bath, the reaction was terminated by adding 600 μL of ice-cold methanol. The contents were vortexed for 30 s and then centrifuged at 4000 rpm for 15 min. The metabolites of psoralen and isopsoralen in the supernatant were identified by UPLC-MS/MS.
(§2) Metabolite analysis by UPLC-MS/MS. The UPLC/MS/MS method was carried out using a Waters Acquity UPLC Sample Manager and a Waters Acquity UPLC Binary Solvent Manager connected to a Waters Quattro Premier XE triple-quadruple mass spectrometer equipped with a combined ESI probe and Mass Lynx 1.4 software (Waters, Milford, MA, USA). An Acquity UPLC BEH C18 column (1.7 µm, 2.1 mm × 100 mm) was used. The instrument settings were as follows: ESI+; source temperature, 120 °C; dissolution temperature, 350 °C; capillary voltage, 3.2 kV; dissolution N2, 600 L/h; cone N2, 50 L/h. Acquisition was carried out from m/z 50 Da to 1000 Da in the total ion scan mode. MS/MS spectra were acquired from m/z 50 Da to 600 Da in the daughter ion scan mode. The solvent system consisted of solvent A (0.1% CH3COOH) and solvent B (100% ACN). The flow rate was 0.2 mL/min. The gradient elution method was 5 to 80% B over 12 min, followed by 5% B from 12 to 15 min.
(§3) Quantitation analysis of psoralen and isopsoralen metabolites by UPLC-MS/MS. […] The HPLC method and electrospray ionization were performed with the same conditions as those for metabolite analysis by UPLC-MS/MS in liver microsomes, except for the cone (30 V) and collision energy (20 V).

[2] = Phase I metabolism in mice liver microsomes, metabolite quantitation by UPLC-MS/MS MRM; assay type: in vitro ADME
Protocol: as §1, §2, §3

patients = system: patients; set-up: method as in doi:10.5021/ad.1995.7.1.51; conditions: 4 of 80 patients, within 3.5–20 months of commencement of PUVA 5-MOP; cited from earlier work
animals = system: animals; set-up: method as in PMID 19640237; conditions: 560 mg/kg daily for 12 days; cited from earlier work
KunMing (KM) mice = assay: Hepatotoxicity study in mice (GSH-depleted by BSO, CYP450 inhibition by ABT): ALT, hepatic GSH, histopathology; conditions: for ALT activity with additional ABT treatment / histopathological evaluation of liver, with ABT: 300 mg/kg oral alone or with BSO, plus ABT 100 mg/kg i.p.; for hepatic GSH level with ABT: 300 mg/kg oral plus ABT 100 mg/kg i.p.; for histopathological evaluation of liver, co-treatment with BSO: 300 mg/kg oral plus BSO 650 mg/kg i.p., 6 or 24 h
Protocol: Male 6-week-old KunMing (KM) mice were purchased from the Animal Institute of the Tianjin University of Traditional Chinese Medicine (Tianjin, China), and were used after a 1-week acclimatization period. The animals were housed in mice cages in a unidirectional airflow room under controlled conditions (20–24 °C, 12:12-h light:dark cycles, and free access to water). We assured that all animals received humane care according to the criteria outlined in the “Guide for the Care and Use of Laboratory Animals” prepared by the National Academy of Sciences and published by the National Institutes of Health ((NIH) publication 86–23 revised 1985).
In the hepatotoxicity study, the mice were randomly assigned to 22 groups (n = 10/group). The mice were intraperitoneally injected with BSO (650 mg/kg) in saline (0.2 mL/20 g). The intraperitoneal dosing of ABT (100 mg/kg) in saline (0.2 mL/20 g) was simultaneous with the BSO dosing. […] Food was removed 14–16 h before BSO dosing, and was supplied again 6 h after administration of the test compounds. At 6 and 24 h, blood was collected by eyeball removal, and then the liver was removed. Plasma was separated from these blood samples, and alanine aminotransferase (ALT) was determined with a commercial kit, the GPT-UV test (Nanjing jiancheng Bioengineering Institute). A piece of each liver sample was fixed in 10% formalin, embedded in paraffin wax, sectioned, and stained with hematoxylin and eosin for histopathological evaluation.
Statistical analysis. The results from the serum ALT assay were analyzed by Kruskal–Wallis non-parametric analysis of variance followed by Mann–Whitney’s U test. For the data of the GSH assay and CYP450s relative activity, comparisons between the two groups were made by independent-samples t test. SPASS 11.5 was used for these statistical analyses. Differences were considered significant when p < 0.05 or p < 0.01.

CYP3A4 = CYP3A4 (Homo sapiens, UniProt P08684); assay: IC50 shift assay (pre-incubation with/without NADPH); assay type: in vitro ADME; conditions: for IC50: HLM; for IC50 Shift (fold): IC50 (−) NADPH versus (+) NADPH pre-incubation
Sequence of CYP3A4 (P08684 whole entry): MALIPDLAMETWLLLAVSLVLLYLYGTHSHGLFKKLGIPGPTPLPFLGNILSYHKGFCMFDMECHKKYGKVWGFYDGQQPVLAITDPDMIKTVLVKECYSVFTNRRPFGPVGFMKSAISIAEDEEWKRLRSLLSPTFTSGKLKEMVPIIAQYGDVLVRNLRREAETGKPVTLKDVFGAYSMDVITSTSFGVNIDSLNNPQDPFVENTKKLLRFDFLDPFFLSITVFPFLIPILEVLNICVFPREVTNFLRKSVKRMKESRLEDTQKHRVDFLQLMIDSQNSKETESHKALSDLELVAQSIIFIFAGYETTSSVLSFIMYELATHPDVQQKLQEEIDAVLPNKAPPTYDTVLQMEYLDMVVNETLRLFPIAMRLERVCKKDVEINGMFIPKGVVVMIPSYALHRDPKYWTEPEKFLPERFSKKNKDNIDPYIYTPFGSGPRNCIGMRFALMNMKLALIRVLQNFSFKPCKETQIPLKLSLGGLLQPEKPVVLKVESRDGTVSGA
Protocol: IC50 shift assay. In the present study, an IC50 shift assay was performed using a two-step procedure. […] After pre-incubation, a 0.02 mL aliquot of the mixture was added to a mixture containing a standard CYP substrate (final concentrations at the Km) in 0.18 mL of potassium phosphate buffer to measure CYP activities. After incubation for 15 min at 37 °C, the reactions were ceased by adding four volumes of pre-cooled methanol. The supernatants were centrifuged at 14,000 rpm for 15 min and then stored at −20 °C until the LC/MS/MS analysis of metabolites.
Analysis of samples. The LC/MS/MS method was conducted as described in [59].
IC50 value calculation. The IC50 value was calculated using GraphPad Prism (version 4.0) software (GraphPad Software, San Diego, CA, USA).

mice = conditions: oral 40 mg daily for 28 days in mice; cited from earlier work
[3] = MRM mode, parent 50 μM, HLM 1.0 mg/mL, NADPH 1 mM, 90 min
[4] = MRM mode, parent 50 μM, MLM 1.0 mg/mL, NADPH 1 mM, 90 min
[5] = 300 mg/kg oral in combination with BSO 650 mg/kg i.p., 6 h
[6] = 300 mg/kg oral in combination with BSO 650 mg/kg i.p., 24 h

6-carboxymethyl-7-hydroxyl-coumarin [M′4]
Peak Area HLM [1, 3]: 34,274
Peak Area MLM [2, 4]: 96,828

COc1c2ccoc2cc2oc(=O)ccc12 [5-MOP, 5-Methoxypsoralen]
patients with transient elevations of liver enzymes (patients): 5%
liver effect of high-dose treatment (animals): hepatocyte changes

CCCCS(=N)(=O)CCC(N)C(=O)O [BSO, L-buthi-onine-S, R-sulfoxinine, reference compound]
plasma ALT activity after sole treatment (KunMing (KM) mice; BSO 650 mg/kg i.p. or ABT 100 mg/kg i.p. alone, at 24 h): no significant changes
hepatic GSH level after treatment with BSO alone (KunMing (KM) mice; BSO 650 mg/kg i.p., over 24 h): time-dependent decrease at least for 6 h, while returning to a normal level at 24 h
liver hazard (pathological section) after BSO alone (KunMing (KM) mice; BSO 650 mg/kg i.p., over 24 h): without hazard to the liver

O=c1ccc2ccc3occc3c2o1 [Isopsoralen]
IC50 (CYP3A4; IC50 (+) NADPH, 30 min pre-incubation with NADPH): 9.59 ± 1.04 µM
IC50 Shift (fold) (CYP3A4): 10.1 fold
IC50 Shift (fold) (CYP3A4; listed as isopsoralen): > 3 fold
IC50 (CYP3A4; IC50 (−) NADPH, 30 min pre-incubation without NADPH): 96.8 ± 2.21 µM
liver injury findings (mice): elevated serum ALT, AST, and/or ALP levels
ALT activity with additional ABT treatment (KunMing (KM) mice): completely suppressed the elevation of ALT activity
histopathological evaluation of liver, with ABT (KunMing (KM) mice): completely relieved the granular degeneration and vacuolation
plasma ALT activity (KunMing (KM) mice; [5]): 30.08 IU/L
plasma ALT activity (KunMing (KM) mice; [6]): 68.99 IU/L
hepatic GSH level with ABT (KunMing (KM) mice; at 24 h): ABT prevented the decrease
histopathological evaluation of liver, co-treatment with BSO (KunMing (KM) mice): did not aggravate the histopathology
histopathological evaluation of liver (KunMing (KM) mice; 300 mg/kg oral, alone, 6 h): weak granular degeneration
plasma ALT activity (KunMing (KM) mice; 300 mg/kg oral, alone, 6 h): 22.73 IU/L
histopathological evaluation of liver (KunMing (KM) mice; 300 mg/kg oral, alone, 24 h): diffuse vacuolation
plasma ALT activity (KunMing (KM) mice; 300 mg/kg oral, alone, 24 h): 43.20 IU/L
hepatic GSH level (KunMing (KM) mice; 300 mg/kg oral, alone, at 24 h): 9.94 ± 8.57 µM/g protein

O=c1ccc2c(O)c3ccoc3cc2o1 [M1]
Peak Area HLM [1, 3]: 557
Peak Area MLM [2, 4]: 1019

O=c1ccc2cc3ccoc3c(O)c2o1 [M2]
Peak Area HLM ([1]; human, microsomes, 1.5 h, 50 μM, pH 7.4): 502
Peak Area MLM ([2]; mouse, microsomes, 1.5 h, 50 μM, pH 7.4): 8655

O=c1ccc2c(O)c3ccoc3c(O)c2o1 [M3]
Peak Area HLM [1, 3]: 529
Peak Area MLM [2, 4]: 164

O=C(O)Cc1cc2ccc(=O)oc2cc1O [M4, 6-carboxymethyl-7-hydroxyl-coumarin]
Peak Area HLM [1, 3]: 66,831
Peak Area MLM [2, 4]: 98,864

O=c1ccc2cc3c(cc2o1)OC(O)C3O (stereo not drawn) [M5]
Peak Area HLM [1, 3]: 61,016
Peak Area MLM [2, 4]: 102,180

O=c1ccc2cc(O)c3occc3c2o1 [M′1]
Peak Area HLM [1, 3]: 1288
Peak Area MLM [2, 4]: 14,513

O=c1ccc2c(O)cc3occc3c2o1 [M′2]
Peak Area HLM [1, 3]: 1349
Peak Area MLM [2, 4]: 4707

O=C(O)/C=C\c1ccc2occc2c1O [M′3]
Peak Area HLM [1, 3]: 312
Peak Area MLM [2, 4]: 418

O=c1ccc2ccc3c(c2o1)C(O)C(O)O3 (stereo not drawn) [M′5]
Peak Area HLM [1, 3]: 1627
Peak Area MLM [2, 4]: 7725

O=c1ccc2cc3ccoc3cc2o1 [Psoralen]
IC50 (CYP3A4; 30 min pre-incubation with NADPH, read-out: IC50 (+) NADPH): 19.5 ± 1.04 µM
IC50 (CYP3A4; 30 min pre-incubation without NADPH, read-out: IC50 (−) NADPH): > 200 µM
ALT activity with additional ABT treatment (KunMing (KM) mice): completely suppressed the elevation of ALT activity
histopathological evaluation of liver, with ABT (KunMing (KM) mice): completely relieved the granular degeneration and vacuolation
plasma ALT activity (KunMing (KM) mice; [5]): 59.90 IU/L
plasma ALT activity (KunMing (KM) mice; [6]): 326.07 IU/L
hepatic GSH level with ABT (KunMing (KM) mice; at 24 h): ABT prevented the decrease
histopathological evaluation of liver, co-treatment with BSO (KunMing (KM) mice): did not aggravate the histopathology
histopathological evaluation of liver (KunMing (KM) mice; 300 mg/kg oral, alone, 6 h): diffuse granular degeneration
plasma ALT activity (KunMing (KM) mice; 300 mg/kg oral, alone, 6 h): 42.17 IU/L
histopathological evaluation of liver (KunMing (KM) mice; 300 mg/kg oral, alone, 24 h): diffuse vacuolation
plasma ALT activity (KunMing (KM) mice; 300 mg/kg oral, alone, 24 h): 128.42 IU/L
hepatic GSH level (KunMing (KM) mice; 300 mg/kg oral, alone, at 24 h): 11.26 ± 3.67 µM/g protein
